Experimental data taken from patent publication US20250129122A1, “PEPTIDE, AND CELL FUSION AGENT AND PHARMACEUTICAL COMPOSITION FOR CANCER THERAPY CONTAINING SAID PEPTIDE” (priority 2021, published 2025).

Columns and labels:
[1] = system: RFL cells; experiment: Apoptosis induction, Caspase-3/7 activity (IncuCyte S3 live cell analysis); format: cell-based, rat; conditions: 0.06 μg/mL, scanned every hour for 3 days, untreated control did not increase
Experimental: (§1) In this Example, the apoptosis ability of peptide 16 was examined using the […] and RM4 cells. An activity of Caspase-3/7 which are indications of apoptosis, was measured using IncuCyte S3 live cell analysis system (Essen BioScience).
(§2) The activity of Caspase-3/7 activity is measured using an inert non-fluorescent (DEVD) substrate that can penetrate the cell membrane. An activated Caspase-3/7 cleaves the substrate, and thereby a DNA-bound green fluorescent label is released. The activity of Caspase-3/7 is measured by the intensity of green fluorescence.
(§3) RFL cells or RM4 cells were seeded on 96-well plates and 0.06 μg/mL of peptide 16 was added thereto. Caspase-3/7 Green Reagent (Unit size: 20 ul, 5 mM/vial) was diluted 500-fold with Ham's F-12K and added thereto.
(§4) They were measured using the IncuCyte S3 live cell analysis system, by continuously scanning every hour for 3 days with an objective lens of magnification of 10 times and 4 fields of view. As a control, RFL cells or RM-4 cells which were not treated with peptide 16, were used.

[2] = system: HVJ virus (Sendai virus); experiment: Virus envelope fusion, electron micrograph
Description: In this example, peptide 16 was applied to the HVJ virus (Sendai virus), and its ability to fuse with the virus was examined.

[3] = system: RM4 cells; experiment: Apoptosis induction, Caspase-3/7 activity (IncuCyte S3 live cell analysis); format: cell-based; conditions: 0.06 μg/mL, scanned every hour for 3 days, untreated control did not increase
Experimental: as §1, §2, §3, §4

[4] = system: A549 cells (human alveolar epithelial adenocarcinoma cells); experiment: In vivo anticancer effect on A549 tumor transplanted in nude mice; set-up: species or system mouse; conditions: A549 subcutaneous, 18.75 mg/kg or 37.5 mg/kg intravenously two times/week during 5 weeks, autopsy 35 days after implantation
Experimental: In this example, the anticancer effect of peptide 16 on A549 cells (human alveolar epithelial adenocarcinoma cells) was examined in vivo.
CAnN.Cg-Foxn1nu/CrlCrlj nude mice were divided into groups of 6 animals each. A549 cells were suspended in PBS at a concentration of 1×10^8 cells/mL and 0.1 mL thereof were transplanted subcutaneously to the right ventral part thereof. The peptide 16 was administered intravenously from the tail vein at a dose of 18.75 mg/kg or 37.5 mg/kg (peptide 16 group-1, or peptide 16 group-2) on two times/week during 5 weeks after tumor transplantation. Control group was administered PBS only.
Autopsy was performed 35 days after tumor implantation, and the tumor was removed. FIGS. 13A (×100) and B (×400) are the photographs of tumor masses of A549 cells treated with peptide 16, and FIGS. 13C (×100) and D (×400) are the controls.

## CH3-Pro-Ile-Val-Ser-Thr-Gln-Thr-Ala-Leu-Ala-miniPEG-D-Lys-D-Lys-D-Lys-NH2 [peptide 16]
[1]
  activity of Caspase-3/7: the activity increased rapidly between 10 and 20 hours
[2]
  fusion of the virus envelope: Fusion of the envelope of the HVJ virus was observed
[3]
  activity of Caspase-3/7: the activity increased rapidly between 10 and 20 hours
[4]
  antitumor effect, HE-stained excised tumor: the inside of the tumor is necrotic
